Like-named read-outs stand apart in the source and are kept apart here.
What was measured:
Southern army worm = settings: in vivo
Spider mites [1] = test: whole plant or invertebrate; settings: Tetranychus urticae; for mortality at 10 ppm: read-out: Spider Mites Mortality,%
Mexican bean beetle [2] = settings: in vivo
Spider mites [3] = settings: in vivo, 48 h
[4] = tested on: bean rust fungus (Uromyces Phaseoli); test: Bean Rust eradicant test; assay type: in vivo; settings: Table III; 200 ppm
Protocol: In these tests, the experimental compounds were tested in aqueous emulsions, prepared in the same manner as was previously described above with respect to the insecticidal and miticidal tests.
Pinto bean plants with fully expanded primary leaves were inoculated with spores of the bean rust fungus (Uromyces Phaseoli) and incubated for 24 hours. The test were then carried out as described above for Bean Powdery Mildew.

[5] = tested on: bean rust fungus (Uromyces Phaseoli); test: Bean Rust systemic eradicant test; assay type: in vivo; settings: Table III; 200 ppm
Protocol: Pinto bean plants were inoculated 24 hours prior to use as above and the soil in the pot was then treated with 20 ml. of an emulsion of the test chemical. The rest of the test and the evaluation were then carried out an above for Bean Powdery Mildew.

Mexican bean beetle [6] = test: whole plant or invertebrate; settings: Epilachna varivestis
in vivo = settings: rat, po
Corn rootworm larvae [7] = test: whole plant or invertebrate; settings: soil, 120 h
[8] = tested on: powdery mildew fungus (Erysiphe Polygoni); test: Bean Powdery Mildew eradicant test; assay type: in vivo; settings: Table III; 200 ppm
Sclerotium = Sclerotium soil fungicide test; assay type: in vivo; settings: Table III; 100 lb/acre
Protocol: Sterilized soil was inoculated with Solerotium and placed into a 4-ounce "Dixie cup", and drenched with 20 ml. of an emulsion of the test chemical. The cup was then incubated for 2 days at 70° F. Thereafter, the amount of mycelial growth on the soil surface was rated and the control by the chemical estimated accordingly.

Corn rootworm larvae [9] = settings: in vivo, 120 h
Bean aphids [10] = settings: bean aphid, in vivo, 48 h
Bean aphids [11] = test: whole plant or invertebrate; settings: Aphis fabae, 48 h
Root-knot nematode = settings: in vivo
Lepidoptera = test: Activity against Lepidoptera / pest spectrum (in words); assay type: in vivo
warm blooded animals = test: Toxicity towards warm blooded animals (in words); assay type: in vivo; settings: summary statements
Protocol: Each compound tested was administered orally by stomach tube to five to eight groups of five male albino rate of the Sprague Dawley strain, weighing 220 to 300 grams at various dosage levels. Following incubation, the animals were closely observed for mortality and toxic effects at intervals for 14 days. Statistical analysis of the mortality data was carried out to determine the median lethal dosages (LD50) according to the method of W. R. Thompson as described in the Journal Bact. Rev. in Vol. 11, pages 115-145 in 1947, utilizng the tables of H. J. Horn published in the Journal Biometrics, Vol. 12, page 311 in 1956. The LD50 dosages are expressed in mg weights of test material per kg weight of rat used.

[12] = tested on: insects, mites and nematodes; test: Overall pesticidal activity in the greenhouse and laboratory tests (in words); assay type: in vivo
Protocol: In Examples 14-29 which follow, the new dithiophosphate compositions of the present invention were tested in the greenhouse and in the laboratory to determine their biological activity. Structurally related, known compounds, usually leading cmmercial compounds, were also tested side-by-side to determine the relative pesticidal effectiveness of the new compounds.
(§1) In the insecticidal and miticidal tests, the experimental compounds were tested as aqueous emulsions. These emulsions were prepared by dissolving the compound in acetone and dispersing it in distilled water with Triton X-100, an alkylaryl polyether alcohol derived by the reaction of i-octylphenol with ethylene oxide, to give spray emulsions containing the desired concentrations of the compound. These emulsions were then used in standard laboratory tests described below.

House fly [13] = test: whole plant or invertebrate; settings: Musca domestica, 48 h
Cabbage looper [14] = test: Field control of cabbage looper on cabbage (Example 28); assay type: in vivo; settings: Table XVI; 1.5 lbs/acre; nil 5.9; higher ratings indicate more damage
Source text: (§2) King Cole cabbage and Vates Collards were transplanted on Feb. 1. Cabbage treatments were made on 50 ft. rows and replicated 4 times. Collard treatments were made on 25 ft. rows and replicated 4 times. Collard and cabbage rows were placed side-by-side and were flanked by guard rows. Except for insecticide treatment, the plots were managed in accordance with recommended farming practice for the area. Chemicals were applied on April 3, 10, 17, 24, May 1, 8, 15, 22 and 29, and readings were made on June 1.

Fall armyworm = test: Field control of fall armyworm on sweet corn (Example 28); assay type: in vivo
Protocol: (§3) Corn plots were planted on March 22. Each treatment was made on a 50 ft. row flanked by guard rows. Treatments were replicated 4 times and the average rating is reported. Except for insecticide treatment, the plots were managed in accordance with recommended farming practice for the area.
Fall armyworm plots on sweet corn were treated on May 13, 20 and 27. Readings were made on May 29.

Spider mites [15] = test: Mite, Systemic; assay type: in vivo, two-spotted mite; settings: Tetranychus urticae, read-out: Mortality Produced, % - Spider Mites Systemic
Protocol: as §1
Mite, Systemic: Bean plants infested with the two-spotted mites were treated by applying 20 ml. of the formulated test chemical to the soil.

Bean aphids [16] = test: Aphid, Systemic; assay type: in vivo, bean aphid; settings: Aphis fabae, 48 h, read-out: Mortality Produced, % - Bean Aphids Systemic
Protocol: as §1
Aphid, Systemic: Nasturtium plants infested with the bean aphid were treated by applying 20 ml. of the formulated test chemical to the soil. The degree of aphid control was rated after 2 days.

House fly [17] = settings: in vivo, 48 h
Corn earworm = test: Field control of corn earworm on corn (Example 28); assay type: in vivo
Source text: as §3
Corn earworm applications were made during silking on May 29, June 1, 2, 3, 4, 5, 8, 9, 10, 11 and 12. Readings were made on June 15.

Cabbage looper [18] = test: Field control of cabbage looper on collards (Example 28); assay type: in vivo; settings: Table XVI; 1.5 lbs/acre; nil 5.3; higher ratings indicate more damage
Source text: as §2

[19] = read-out: Mexican Bean Beetles Mortality,%
[20] = read-out: Corn Rootworm Mortality,%
[21] = read-out: Bean Aphids Mortality,%
[22] = read-out: Mortality Produced at 50 ppm, % - Spider Mites
[23] = read-out: Mortality Produced at 50 ppm, % - Mexican Bean Beetles
[24] = read-out: Corn Rootworm Mortality, % at 2.5 ppm
[25] = read-out: Mortality Produced at 50 ppm, % - Bean Aphids
[26] = read-out: Mortality Produced at 50 ppm, % - Houseflies
[27] = 48 h, read-out: Mortality Produced, % - Spider Mites Contact
[28] = read-out: Mortality Produced, % - Mex.Bean Beetle
[29] = read-out: Mortality Produced, % -
[30] = read-out: Mortality Produced, % - Bean Aphids Contact
[31] = read-out: Mortality Produced, % - House Flies

With `CCCSP(=O)(OCC)SCC(C)SCC` (centres unmarked) [Example 33, O-Ethyl S-1-Propyl S'-2-Ethylthiopropyl Dithiophosphate] the “S.Armyworm Mortality,%” value (Southern army worm) was 100%, the mortality at 10 ppm (Spider mites [1]) was 100% and the “Pest Control, % - Mex. Bean Beetle” value (Mexican bean beetle [2]) was 100%. For the same compound, the “Pest Control, % - Spider Mites Contact” value (Spider mites [3]; spider mite) was 100%, the “Control of Foliar Fungi, % - Bean Rust Eradicant” value [4] was 80% and the “Control of Foliar Fungi, % - Bean Rust Systemic Eradicant” value [5] was 90%. The mortality at 50 ppm (Mexican bean beetle [6]; [19]) was 70%, the LD50 at 336 h (in vivo) was 214 mg/kg and the mortality at 2.5 ppm (Corn rootworm larvae [7]; [20]) was 100%. For the same compound, the “Control of Foliar Fungi, % - Bean Mildew Eradicant” value [8] was 70%, the “Control of Sclerotium, %” value (Sclerotium) was 60% and the “Pest Control, % - Corn Rootworm (0.25 ppm)” value (Corn rootworm larvae [9]) was 100%. For the same compound, the “Pest Control, % - Bean Aphids Contact” value (Bean aphids [10]) was 100%, the mortality at 50 ppm (Bean aphids [11]; [21]) was 100% and the “Nematode Control,%” value (Root-knot nematode) was 100%. The “Pest Control, % - Nematode Control (25 lb/acre)” value (Root-knot nematode) was 100%.
With `CCCSP(=O)(OCC)SCC(C)SC(C)=O` (centres unmarked) [Example 13, O:ETHYL S-1-PROPYL S-2-ACETYLTHIOPROPYL DITHIOPHOSPHATE] the “pesticidal spectrum / activity against Lepidoptera” value (Lepidoptera) was “shows the broad pesticidal spectrum and the specific activity against Lepidoptera”.
With `CCCSC(C)CSP(=O)(OCC)SCCC` (centres unmarked) [Example 34, O-Ethyl S-1-Propyl S'-2-n-Propylthiopropyl Dithiophosphate] the “toxicity (in words)” value (warm blooded animals) was “particularly low toxicity”, the “S.Armyworm Mortality,%” value (Southern army worm) was 100% and the mortality at 10 ppm (Spider mites [1]) was 100%. It also gave a mortality at 50 ppm (Mexican bean beetle [6]; [19]) of 100%, an LD50 at 336 h (in vivo) of 422 mg/kg and a mortality at 2.5 ppm (Corn rootworm larvae [7]; [20]) of 100%. The mortality at 50 ppm (Bean aphids [11]; [21]) was 100% and the “Nematode Control,%” value (Root-knot nematode) was 100%.
For `CCCSP(=O)(OCC)SCC(SC)C(C)(C)C` (centres unmarked) [Example 39, O-Ethyl S-1-Propyl S'-2-Methylthio-3,3-Dimethylbutyl Dithiophosphate], the “insecticidal activity at 50 ppm (in words)” value ([12]; 50 ppm) was “very little insecticidal activity”, the “Mortality Produced at 50 ppm, % - Southern Army Worm” value (Southern army worm; southern armyworm) was 0% and the mortality at 50 ppm (Spider mites [1]; [22]) was 100%. For the same compound, the mortality at 50 ppm (Mexican bean beetle [6]; [23]) was 0%, the mortality at 2.5 ppm (Corn rootworm larvae [7]; [24]) was 80% and the mortality at 50 ppm (Bean aphids [11]; [25]) was 30%. It also gave a mortality at 50 ppm (House fly [13]; [26]) of 20%.
In the case of `CCCSP(=O)(OCC)SCC(C)SC` (centres unmarked) [Example 32, O-Ethyl S-1-Propyl S'-2-Methylthiopropyl dithiophosphate], the “Cabbage Looper Harvest Rating - Cabbage” value (Cabbage looper [14]) is reported as 3.8, the “Fall Armyworm Injury Free Stalks of Sweet Corn, %” value (Fall armyworm; Table XVI, 0.75 lbs/acre, nil 67) is reported as 91% and the “control of fall armyworm (in words)” value (Fall armyworm; sweet corn, 0.75 lbs. per acre) is reported as “well controlled”. The “S.Armyworm Mortality,%” value (Southern army worm) was 100%, the “Mortality Produced at 50 ppm, % - Southern Army Worm” value (Southern army worm; southern armyworm) was 100% and the “Mortality Produced, % - S.Army Worm” value (Southern army worm; southern armyworm) was 100%. The mortality at 50 ppm (Spider mites [1]; [27]) was 100%, the mortality at 250 ppm (Spider mites [1]; [27]) was 100% and the mortality at 50 ppm (Spider mites [1]; [22]) was 100%. For the same compound, the mortality at 10 ppm (Spider mites [1]) was 100%, the “Mortality Produced, % - Mex.Bean Beetle” value (Mexican bean beetle [2]) was 100% and the “Mortality Produced, % - Spider Mites Contact” value (Spider mites [3]; two-spotted spider mite) was 100%. For the same compound, the mortality at 50 ppm (Mexican bean beetle [6]; [19]) was 100%, the mortality at 50 ppm (Mexican bean beetle [6]; [23]) was 100% and the mortality at 50 ppm (Mexican bean beetle [6]; [28]) was 100%. The mortality at 250 ppm (Mexican bean beetle [6]; [28]) was 100%, the LD50 at 336 h (in vivo) was 109 mg/kg and the mortality at 2.5 ppm (Corn rootworm larvae [7]; [24]) was 100%. It also gave a mortality at 2.5 ppm (Corn rootworm larvae [7]; [20]) of 100%, a mortality at 50 ppm (Spider mites [15]) of 100% and a mortality at 250 ppm (Spider mites [15]) of 100%. The mortality at 50 ppm (Bean aphids [16]) was 0%, the mortality at 250 ppm (Bean aphids [16]) was 100% and the “Mortality Produced, % - House Flies” value (House fly [17]) was 100%. For the same compound, the “control of corn earworms (in words)” value (Corn earworm; 0.5 lbs per acre) was “excellent control”, the “Corn Earworm, % Clean Ears” value (Corn earworm; Table XVI, 0.5 lbs/acre, nil 36) was 94% and the mortality at 50 ppm (Bean aphids [11]; [21]) was 100%. The mortality at 50 ppm (Bean aphids [11]; [25]) was 100%, the mortality at 50 ppm (Bean aphids [11]; [29]) was 100% and the mortality at 250 ppm (Bean aphids [11]; [29]) was 100%. For the same compound, the mortality at 50 ppm (Bean aphids [11]; [30]) was 100%, the mortality at 250 ppm (Bean aphids [11]; [30]) was 100% and the “Nematode Control,%” value (Root-knot nematode) was 100%. For the same compound, the “Nematodes Control % at 25 lb/acre” value (Root-knot nematode) was 100%, the mortality at 50 ppm (House fly [13]; [26]) was 100% and the mortality at 50 ppm (House fly [13]; [31]) was 100%. The mortality at 250 ppm (House fly [13]; [31]) was 100% and the “Cabbage Looper Harvest Rating - Collards” value (Cabbage looper [18]) was 2.0.
In the case of `CCCCCCSC(C)CSP(=O)(OCC)SCCC` (centres unmarked) [Example 36, O-Ethyl S-1-Propyl S'-2-n-Hexylthiopropyl Dithiophosphate], the “pesticidal activity (in words)” value ([12]; summary statements) is reported as “decreased level of activity”, the “S.Armyworm Mortality,%” value (Southern army worm) is reported as 100% and the mortality at 10 ppm (Spider mites [1]) is reported as 90%. The mortality at 50 ppm (Mexican bean beetle [6]; [19]) was 100%, the mortality at 2.5 ppm (Corn rootworm larvae [7]; [20]) was 0% and the mortality at 50 ppm (Bean aphids [11]; [21]) was 50%. For the same compound, the “Nematode Control,%” value (Root-knot nematode) was 10%.

— patent US4075332A (priority 1976, dated 1978)
